In PMC6685951, “Migration of Bacteriocins Across Gastrointestinal Epithelial and Vascular Endothelial Cells, as Determined Using In Vitro Simulations” (Scientific Reports, 2019):
Where a SMILES comes first, the peptide text is derived from it. Bridges are numbered along the chain shown (N, C = ends).

Assay: Plasma stability assay (loss of antimicrobial activity)
Format: in vitro ADME, human
Details: 37 °C, 3 days, agar well diffusion vs L. monocytogenes EGDe, zone diameter (ImageJ)
Procedure: Human blood was collected in tubes with potassium and EDTA as anticoagulant, centrifuged at 500 × g (10 min, 25 °C) and the plasma collected. Different plasma concentrations (0%, 40% and 80%, v/v) were prepared by diluting with sterile ultrapure water. Nisin A, plantaricin 423 and bacST4SA, each suspended in sterile ultrapure water, were added to the plasma to final concentrations of 25 µM, 50 µM and 100 µM, sterile ultrapure water was used as control. Incubation was at 37 °C for 3 days and bacteriocin activity was tested using the agar well diffusion assay. Listeria monocytogenes EGDe was used as target organism. Digital images of the plates were taken after incubation and activity quantified by measuring the diameter of the zones using ImageJ software (version 1.5; https://imagej.nih.gov/ij/).

Structure (SMILES): CC(C)C[C@@H]1NC(=O)[C@H](Cc2c[nH]cn2)NC(=O)[C@H](CO)NC(=O)[C@H](C(C)C)NC(=O)[C@H](CO)NC(=O)[C@@H](NC(=O)[C@H](CO)NC(=O)[C@H](Cc2ccccc2)NC(=O)[C@H](C)NC(=O)[C@H](CCC(N)=O)NC(=O)CNC(=O)[C@H](Cc2c[nH]c3ccccc23)NC(=O)[C@H](CC(N)=O)NC(=O)[C@@H](NC(=O)[C@H](CO)NC(=O)[C@@H]2CSSC[C@H](NC(=O)[C@@H](NC(=O)[C@@H](NC(=O)CNC(=O)[C@H](CC(N)=O)NC(=O)CNC(=O)[C@H](Cc3ccc(O)cc3)NC(=O)[C@H](Cc3ccc(O)cc3)NC(=O)[C@@H](N)CCCCN)C(C)C)[C@@H](C)O)C(=O)NCC(=O)N[C@@H](CCCCN)C(=O)N[C@@H](Cc3c[nH]cn3)C(=O)N[C@@H](CO)C(=O)N2)C(C)C)CSSC[C@@H](C(=O)O)NC(=O)[C@H](CCCCN)NC(=O)CNC(=O)[C@H](Cc2c[nH]cn2)NC(=O)CNC(=O)[C@H](Cc2ccccc2)NC(=O)[C@H](CC(N)=O)NC(=O)[C@H](C)NC1=O [plantaricin 423] (H-KYYGNGVTCGKHSCSVNWGQAFSCSVSHLANFGHGKC-OH; disulfide 9-14, 24-37; N-terminus and C-terminus assumed)
- decrease in antimicrobial activity (40% (v/v) human EDTA plasma in ultrapure water, 25 µM peptide): 40%
- decrease in antimicrobial activity (40% (v/v) human EDTA plasma in ultrapure water, 50 µM peptide): 30%
- decrease in antimicrobial activity (40% (v/v) human EDTA plasma in ultrapure water, 100 µM peptide): 17%
- decrease in antimicrobial activity (80% (v/v) human EDTA plasma in ultrapure water, 25 µM peptide): 60%
- decrease in antimicrobial activity (80% (v/v) human EDTA plasma in ultrapure water, 50 µM peptide): 39%
- decrease in antimicrobial activity (80% (v/v) human EDTA plasma in ultrapure water, 100 µM peptide): 29%
